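GI50 = concentration required for 50% inhibition of growth. TGI is the concentration that stops growth completely.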
Tests used:
Test in all cases: NCI-60 cell line screen, 384-well format
A498 renal = test system: A498 renal
HCC-2998 colon = test system: HCC-2998 colon
LOX IMVI melanoma = test system: LOX IMVI melanoma
MALME-3M melanoma = test system: MALME-3M melanoma
MDA-MB-231 breast = test system: MDA-MB-231 breast
NCI-H226 lung = test system: NCI-H226 lung
NCI-H460 NSCLC = test system: NCI-H460 NSCLC
OVCAR-3 ovarian = test system: OVCAR-3 ovarian
OVCAR-5 ovarian = test system: OVCAR-5 ovarian
SF-268 CNS = test system: SF-268 CNS
SF-539 CNS = test system: SF-539 CNS
SK-MEL-28 melanoma = test system: SK-MEL-28 melanoma
U251 glioblastoma = test system: U251 glioblastoma

With `Cc1cc(Nc2cc(N)ncn2)c(=O)n2c1C(=O)NC21CCCCC1` the GI50 (A498 renal) was > 100 µM, the TGI (A498 renal) was > 100 µM and the GI50 (HCC-2998 colon) was > 100 µM. For the same compound, the TGI (HCC-2998 colon) was > 100 µM, the GI50 (LOX IMVI melanoma) was > 100 µM and the TGI (LOX IMVI melanoma) was > 100 µM. The GI50 (MALME-3M melanoma) was > 100 µM, the TGI (MALME-3M melanoma) was > 100 µM and the GI50 (MDA-MB-231 breast) was > 100 µM. The TGI (MDA-MB-231 breast) was > 100 µM, the GI50 (NCI-H226 lung) was > 100 µM and the TGI (NCI-H226 lung) was > 100 µM. For the same compound, the GI50 (NCI-H460 NSCLC) was > 100 µM, the TGI (NCI-H460 NSCLC) was > 100 µM and the GI50 (OVCAR-3 ovarian) was > 100 µM. The TGI (OVCAR-3 ovarian) was > 100 µM, the GI50 (OVCAR-5 ovarian) was > 100 µM and the TGI (OVCAR-5 ovarian) was > 100 µM. The GI50 (SF-268 CNS) was > 100 µM, the TGI (SF-268 CNS) was > 100 µM and the GI50 (SF-539 CNS) was > 100 µM. For the same compound, the TGI (SF-539 CNS) was > 100 µM, the GI50 (SK-MEL-28 melanoma) was > 100 µM and the TGI (SK-MEL-28 melanoma) was > 100 µM. The GI50 (U251 glioblastoma) was > 100 µM and the TGI (U251 glioblastoma) was > 100 µM.

From PubChem BioAssay (NCI)
